ChEMBL document CHEMBL3797030, “Anti-hepatitis C Virus Natural Product from a Fungus, Penicillium herquei” (J Nat Prod, 2016)

Tested on: Hepatitis C virus
Assay: Antiviral activity against Hepatitis C virus J6/JFH1 infected in human Huh7.5.1 cells assessed as reduction in amount of core HCV protein after 72 hrs by focus formation assay
Assay type: functional, organism-based, Hepacivirus hominis
Settings: J6/JFH1, Huh-7, 72 h

Row | Structure (SMILES) | IC50 [µM]
1 | C[C@H]1CCN2C[C@]34Cc5c([nH]c6ccccc56)C(C)(C)[C@@H]3C[C@]12C(=O)N4 | > 40
2 | COC1=N[C@]23CN4CC[C@@](C)(O)[C@]14C[C@H]2C(C)(C)[C@@]1(C3)C(=O)Nc2c1ccc1c2C(=O)CC(C)(C)O1 | > 40
3 | COc1c(O)c2c3c(c1O)C(=O)[C@@]1(O)C(=C3C(C)=C(O)C2=O)O[C@@H](C)C1(C)C | > 40
4 | COc1c(O)c2c3c(c1O)C(=O)[C@@]1(O)C(=C3C(C)=CC2=O)O[C@H](C)C1(C)C | > 40

Results, then the compound that gave them:

Row | IC50 [µM] | Structure (SMILES)
5 | > 40 | COC1=C(O)C2=C3O[C@H](C)C(C)(C)[C@]3(O)C(=O)c3c(C)cc(O)c(c32)C1=O
6 | > 40 | C[C@H]1CCN2C[C@]34C[C@@]5(C(=O)Nc6c5ccc5c6C(=O)CC(C)(C)O5)C(C)(C)[C@@H]3C[C@]12C(=O)N4
7 | 5.1 | C[C@H]1CCN2CC34Cc5c([nH]c6c7c(ccc56)OC(C)(C)CC7=O)C(C)(C)[C@@H]3CC12C(=O)N4 (some centres not stated)
